Our source for the GI50 and TGI values is PubChem BioAssay (NCI).

Molecules are shown by their SMILES. Where “and” joins values, the source holds several entries; their conditions need not be identical. Equal entries are not always repeated.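 Following 48 hours of exposure in 96-well plates, responses at five concentrations were used to interpolate endpoints linearly. GI50: concentration for 50% inhibition of growth. At the TGI there is no net growth.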

This assay has as its system MDA-MB-468 breast. As to the kind of experiment: inhibition of tumour cell growth, NCI panel, 48 h.
For the compound `CN(C)CCN1C(=O)c2cccc3c(N)ccc(c23)C1=O`, the GI50 is 8400 nM and the TGI was above 25000 nM.

In the case of `COc1ccc2c(c1)C(=O)c1c-2c(OCCN(C)C)nc2cc(OC)ccc12`, the GI50 was 1870 nM and the TGI came out at 8570 nM.

On to `O=C(CCc1ccco1)NC1CCN(CC2(c3ccc(Cl)cc3)CCC2)CC1`, for which the GI50 is 5280 nM and the TGI is 18900 nM.

With `OC(COc1cccc2ccccc12)CN1CCN(c2ccc(Cl)cc2)CC1` (stereo unspecified), the GI50 is 36400 nM and the TGI is above 100000 nM.

`NC(=O)c1ccc2nc(-c3ccc(C4(N)CCC4)cc3)c(-c3ccccc3)n2n1`: the GI50 was 169 nM and the TGI turned out to be 10300 nM.

Consider `Cc1c2cnccc2c(C)c2c1c1cc(C(=O)O)ccc1n2C`, for which the GI50 was 837 nM and the TGI was determined as 3070 nM.

On to `Cc1cc(C(=O)N[C@@H](CCC(=O)O)C(=O)O)sc1CC[C@@H]1CNc2nc(N)[nH]c(=O)c2C1`, for which the GI50 was 33.3 nM.

Take `CCN1/C(=C/C=C/C=C/c2sc3ccccc3[n+]2CC)Sc2ccccc21`: the GI50 was 117 nM and the TGI was determined as 989 nM.

As to `COc1cc(/C=C2\CCCC3C2=Nc2ccccc2NC3c2cc(OC)c(OC)c(OC)c2)cc(OC)c1OC` (stereo unspecified), the GI50 is 1710 nM and the TGI was 6100 nM.

For `COc1cc(OC)cc(-c2ccc(-c3ccc(C(=N)N)s3)s2)c1`, the GI50 is 304 nM and the TGI is 1160 nM.

As for `C=CC[N+]1(CCO)CCN=C1CCCCCCCCCCCCC` (stereo unspecified), the GI50 was 1180 nM and the TGI stood at 2550 nM.

Consider `NC(N)=Nc1ccc(Oc2cccc(Nc3ccc(Cl)c(C(F)(F)F)c3)c2)cc1`, for which the GI50 is 1480 nM and the TGI was 3480 nM.

As for `CC(C)(C)OC(=O)N1CC(Cn2cc(C(F)(F)F)c3c(Cl)ncnc32)C1`, the GI50 is 1840 nM and the TGI came to 3870 nM.

For `CCOC(=O)/C(=C/c1ccccc1)C(=O)c1ccccc1`, the GI50 is 3770 nM and the TGI was 13800 nM.

Turning to `O=C(C[C@@]1(O)C(=O)Nc2c(Cl)ccc(Cl)c21)c1ccc(C2CC2)cc1`, the GI50 is 221 nM and the TGI is 18600 nM.

With `CCN(CC)S(=O)(=O)c1ccc(-c2nc(C(Cl)Cl)nc3cc(C)nn23)cc1`, the GI50 is 1720 nM and the TGI is 4440 nM.

For `COc1ccccc1-c1ccc2nc(NC(=O)Nc3cc(C(F)(F)F)cc(C(F)(F)F)c3)sc2c1`, the GI50 was 1520 nM and the TGI was 5430 nM.

For the compound `COc1ccc2[nH]c(-c3ccccc3)c(C=C(C#N)C#N)c2c1`, the GI50 is 2130 nM and the TGI turned out to be 49900 nM.

For `N=C(N)c1ccc(-c2ccc(-c3cncc4ccccc34)s2)cc1F`, the GI50 was 1280 nM and the TGI was determined as 2950 nM.

Turning to `O=C1c2ccc3c4c(ccc(c24)C(=O)N1CCCNCc1ccccc1)C(=O)N(CCCNCc1ccccc1)C3=O`, the GI50 was 143 nM and the TGI was found to be 285 nM.

As for `C[C@H](C(=O)N[C@@H](Cc1ccc(-c2ccccc2)cc1)C(=O)NC1CC(C)(C)N(C)C(C)(C)C1)c1ccc(-c2ccccc2)c(F)c1`, the GI50 was 1240 nM and the TGI worked out at 2660 nM.

Take `COc1cc(-c2cc(-c3nc4cc(Cl)c(Cl)cc4[nH]3)[nH]n2)cc(OC)c1OC`: the GI50 was 3490 nM and the TGI was found to be 16200 nM.

As to `C=CC(=O)NCCOc1cccc(Nc2cc(NCCCNC(=O)C3CCC3)c(Br)cn2)c1`, the GI50 is 1420 nM and the TGI was 5080 nM.

As to `COc1nc2c(cc1S(=O)(=O)c1ccccc1)CCc1c-2cnn1Cc1ccccc1`, the GI50 is 6450 nM and the TGI was above 100000 nM.

Turning to `COc1cc(-c2nc3ccccc3[nH]2)ccc1OCC(=O)N=Nc1c(O)[nH]c2ccc(Cl)cc12`, the GI50 was 1740 nM and the TGI turned out to be 3450 nM.

Regarding `COc1ccc(C2=CC(c3ccc(Oc4ccnc5cc(Cl)ccc45)c(OC)c3)c3c(nc(OC)[nH]c3=O)N2)cc1` (stereo unspecified), the GI50 was 5220 nM and the TGI was above 100000 nM.

Regarding `C[C@@H]1[C@H]2[C@H](C=C3[C@@H]4CC[C@H]5Cc6nc7c(nc6C[C@]5(C)[C@H]4C[C@@H](O)[C@@]32C)C[C@@H]2CC[C@H]3C4=C[C@@H]5O[C@@]6(CC[C@](C)(CO)O6)[C@@H](C)[C@@]5(O)[C@@]4(C)[C@H](O)C[C@@H]3[C@@]2(C)C7)O[C@]12CCC(C)(C)O2`, the GI50 was 961 nM and the TGI stood at 20700 nM.

As for `CSC1=Nc2c(c(C)c(-c3ccccc3)n2CCCCl)C2=NC(=O)CN12`, the GI50 was 3130 nM and the TGI was determined as 13100 nM.

For the compound `O=C1OCC2=C1C(c1cccc(C(F)(F)F)c1)c1cc3c(cc1N2CCO)OCO3` (stereo unspecified), the GI50 is 244 nM and the TGI turned out to be 2160 nM.

Regarding `FC(F)(F)c1[nH]ncc1-c1nc2c(N3CCCCC3)cc3[nH]ncc3c2c2c1CCCC2`, the GI50 is 691 nM and the TGI was determined as 2450 nM.

As for `COc1cc2cn3c4ccc(O)cc4nc(N)c3c2cc1OC`, the GI50 is 313 nM and the TGI was 2210 nM.

`CC(C)(C)CC(C)(C)N(CSc1ccc(Cl)cc1)CSc1ccc(Cl)cc1`: the GI50 is 2610 nM and the TGI worked out at 12400 nM.

Regarding `COc1ccc2c(O)c(/C=C3\N=Nc4ncccc43)oc2c1C[C@H]1CCNC[C@H]1F`, the GI50 was 246 nM and the TGI came to 1950 nM.

As to `Fc1c[c-]c(-c2ccccn2)c(F)c1.[CH3-].[Pt+2].c1ccc([PH+](c2ccccc2)c2ccccn2)cc1`, the GI50 is 1400 nM and the TGI worked out at 4270 nM.

For `Cc1cc(O)c(C2=NN(c3ccc(S(N)(=O)=O)cc3)C(c3ccccc3O)C2)cc1Cl` (stereo unspecified), the GI50 is 2260 nM and the TGI was found to be 5700 nM.

Turning to `COc1cc(-c2nc(-c3nnc(-c4ccc(F)c(Cl)c4)o3)c3ccccn23)cc(OC)c1OC`, the GI50 is 3390 nM and the TGI is above 100000 nM.

Turning to `CCN1CCC2(CC1)NC(=O)c1c(c3ccc(Cl)c(Cl)c3n1C)C2C#N` (stereo unspecified), the GI50 was 1350 nM and the TGI was 2910 nM.

For the compound `O=C1CCC(N2C(=O)c3ccc(NS(=O)(=O)c4ccccc4OC(F)(F)F)cc3C2=O)C(=O)N1` (stereo unspecified), the GI50 is 53.6 nM and the TGI was found to be 2130 nM.

On to `Cc1cc(Nc2cc(CN3CCOCC3)c3nc(C)c(Cc4ccc(Cl)cc4F)n3n2)n[nH]1`, for which the GI50 is 441 nM and the TGI is 2950 nM.

As for `COc1ccc(-c2nn(-c3ccc(NC(=O)Nc4ccc(Cl)c(Cl)c4)cc3)cc2-c2ccncc2)cc1Cl`, the GI50 was 1610 nM and the TGI was found to be 4480 nM.

Consider `COc1ccc(-c2ccc3ncc4c(c3c2)n(-c2ccc(N3CCNCC3)c(C(F)(F)F)c2)c(=O)n4C)cn1`, for which the GI50 is < 10 nM and 3.18 nM; the TGI is 19.4 nM and 19.9 nM.

`O=[N+]([O-])c1cccc(/C=C/c2ccccn2)c1`: the GI50 is 2250 nM and the TGI is above 100000 nM.

As to `COc1ccc(Cn2cc3c(c2-c2cc(OC)c(OC)c(OC)c2)CCCc2cnoc2-3)cc1N`, the GI50 was 540 nM and the TGI was above 100000 nM.

Take `COc1cccc2c1C(=O)c1c(O)c3c(c(O)c1C2=O)C[C@@](O)(C(=O)CO)C[C@@H]3OC1CC(OC(C)=O)C(OC(C)=O)C(C)O1` (stereo partly specified): the GI50 is 530 nM and the TGI was determined as 5060 nM.

Regarding `O=C(Nc1ccc(Cl)cc1F)c1cc(F)ccc1O`, the GI50 was 1270 nM and the TGI came out at 5180 nM.

Take `CN1C(=O)N(C)C2C1NN=c1s/c(=C\c3c[nH]c4ccccc34)c(=O)n12` (stereo unspecified): the GI50 was 35.9 nM and the TGI was above 86800 nM.
